Source: ChEMBL document CHEMBL1833828, “Efficient conversion of a nonselective norepinephrin reuptake inhibitor into a dual muscarinic antagonist-β₂-agonist for the treatment of chronic obstructive pulmonary disease” (J Med Chem, 2011)

Legend:
[1] = Lipophilicity, log D of the compound; type: physicochemical; conditions: octanol/water
[2] = Metabolic stability in human liver microsomes; type: ADME, Microsome; conditions: read-out: Stability
[3] = target: T1, Sodium-dependent noradrenaline transporter (Homo sapiens, UniProt P23975); assay: Binding affinity at human NET receptor at 10 uM
[4] = target: T2, Muscarinic acetylcholine receptor M3 (Homo sapiens, UniProt P20309); assay: Displacement of [3H]N-methylscopolamine from human M3 receptor
Target sequence in this assay (P20309 whole entry): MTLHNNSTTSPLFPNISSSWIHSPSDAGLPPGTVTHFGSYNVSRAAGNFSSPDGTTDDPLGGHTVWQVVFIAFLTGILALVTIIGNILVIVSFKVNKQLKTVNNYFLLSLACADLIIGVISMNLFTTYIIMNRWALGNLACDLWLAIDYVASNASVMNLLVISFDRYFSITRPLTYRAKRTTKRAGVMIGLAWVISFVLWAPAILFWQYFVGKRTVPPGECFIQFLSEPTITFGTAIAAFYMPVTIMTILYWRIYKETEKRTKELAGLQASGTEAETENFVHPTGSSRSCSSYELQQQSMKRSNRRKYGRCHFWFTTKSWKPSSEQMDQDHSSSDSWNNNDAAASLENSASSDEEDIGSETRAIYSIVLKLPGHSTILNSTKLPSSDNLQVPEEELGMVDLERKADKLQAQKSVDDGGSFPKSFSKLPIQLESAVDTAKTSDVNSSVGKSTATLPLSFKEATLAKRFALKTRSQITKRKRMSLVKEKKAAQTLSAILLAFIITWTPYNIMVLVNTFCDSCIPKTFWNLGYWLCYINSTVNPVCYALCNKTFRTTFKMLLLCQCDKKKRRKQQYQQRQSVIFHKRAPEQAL

[5] = target: T1, Sodium-dependent noradrenaline transporter; assay: Displacement of [3H]nisoxetine from human NET receptor
[6] = target: T3, Beta-2 adrenergic receptor (Homo sapiens, UniProt P07550); assay: Agonist activity at human beta-2 adrenergic receptor expressed in CHO cells assessed as induction of intracellular cAMP production; type: functional, cell-based
Target sequence in this assay (P07550 whole entry): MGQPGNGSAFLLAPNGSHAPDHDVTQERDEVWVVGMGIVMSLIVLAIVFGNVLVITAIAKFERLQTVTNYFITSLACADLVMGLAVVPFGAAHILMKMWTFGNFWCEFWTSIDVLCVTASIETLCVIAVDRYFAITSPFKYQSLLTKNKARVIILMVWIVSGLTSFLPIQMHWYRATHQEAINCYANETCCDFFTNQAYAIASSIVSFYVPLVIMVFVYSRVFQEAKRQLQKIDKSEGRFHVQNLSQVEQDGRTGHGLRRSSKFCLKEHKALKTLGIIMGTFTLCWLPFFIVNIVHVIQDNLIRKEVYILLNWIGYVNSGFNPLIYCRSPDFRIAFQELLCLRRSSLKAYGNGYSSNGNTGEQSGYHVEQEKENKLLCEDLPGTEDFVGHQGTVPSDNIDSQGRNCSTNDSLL

[7] = target: Beta-1 adrenergic receptor (Homo sapiens, UniProt P08588); assay: Agonist activity at beta-1 adrenergic receptor; type: functional
[8] = target: T2, Muscarinic acetylcholine receptor M3; assay: Antagonist activity at human cloned M3 receptor assessed as time taken to reach 50% of total [3H]NMS for solvent treated membranes by dilution-offset method; type: functional
Target sequence in this assay (P20309 whole entry, looked up): as the sequence (P20309 whole entry) above

[9] = target: T3, Beta-2 adrenergic receptor; assay: Agonist activity at human cloned beta-2 adrenergic receptor expressed in CHO cells after compound wash-out relative to unwashed cells; type: functional, cell-based
Target sequence in this assay (P07550 whole entry, looked up): as the sequence (P07550 whole entry) above

Cavia porcellus = species on record: Cavia porcellus; assay: Bronchodilatory action in guinea pig trachea assessed as inhibition of electrical field-stimulated acetylcholine release; type: functional
[10] = Bronchodilatory action against electrical field-stimulated constriction in guinea pig trachea assessed as time taken for the muscle tone at EC70 to recover by 50% of inhibition induced; type: functional, Cavia porcellus
[11] = Bronchodilatory action in guinea pig trachea assessed as inhibition of electrical field-stimulated acetylcholine release in the presence of beta-2 adrenergic receptor antagonist propranolol; type: functional, tissue-based, Cavia porcellus
[12] = Bronchodilatory action against electrical field-stimulated constriction in guinea pig trachea assessed as time taken for the muscle tone at EC70 to recover by 50% of inhibition induced in the presence of beta-2 adrenergic receptor antagonist propranolol; type: functional, Cavia porcellus
[13] = Permeability across human Caco2 cells; type: ADME, cell-based; conditions: Caco-2, read-out: permeability

T1 sequence (P23975 whole entry): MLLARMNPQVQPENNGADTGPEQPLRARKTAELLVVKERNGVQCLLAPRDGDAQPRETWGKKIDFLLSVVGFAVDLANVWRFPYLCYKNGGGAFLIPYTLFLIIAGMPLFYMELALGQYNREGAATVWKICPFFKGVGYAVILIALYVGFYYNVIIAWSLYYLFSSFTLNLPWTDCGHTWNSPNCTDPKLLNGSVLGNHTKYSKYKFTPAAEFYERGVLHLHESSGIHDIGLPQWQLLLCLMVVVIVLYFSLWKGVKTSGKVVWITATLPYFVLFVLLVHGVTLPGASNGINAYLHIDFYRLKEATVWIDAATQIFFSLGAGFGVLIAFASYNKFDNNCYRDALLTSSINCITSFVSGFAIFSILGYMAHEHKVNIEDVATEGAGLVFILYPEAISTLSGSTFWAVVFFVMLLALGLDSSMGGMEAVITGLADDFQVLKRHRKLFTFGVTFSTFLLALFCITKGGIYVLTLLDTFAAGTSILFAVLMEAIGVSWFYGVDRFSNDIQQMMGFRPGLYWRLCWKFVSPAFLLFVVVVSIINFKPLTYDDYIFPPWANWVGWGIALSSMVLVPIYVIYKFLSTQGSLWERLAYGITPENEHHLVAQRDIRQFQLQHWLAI
Sequence of Beta-1 adrenergic receptor (P08588 whole entry): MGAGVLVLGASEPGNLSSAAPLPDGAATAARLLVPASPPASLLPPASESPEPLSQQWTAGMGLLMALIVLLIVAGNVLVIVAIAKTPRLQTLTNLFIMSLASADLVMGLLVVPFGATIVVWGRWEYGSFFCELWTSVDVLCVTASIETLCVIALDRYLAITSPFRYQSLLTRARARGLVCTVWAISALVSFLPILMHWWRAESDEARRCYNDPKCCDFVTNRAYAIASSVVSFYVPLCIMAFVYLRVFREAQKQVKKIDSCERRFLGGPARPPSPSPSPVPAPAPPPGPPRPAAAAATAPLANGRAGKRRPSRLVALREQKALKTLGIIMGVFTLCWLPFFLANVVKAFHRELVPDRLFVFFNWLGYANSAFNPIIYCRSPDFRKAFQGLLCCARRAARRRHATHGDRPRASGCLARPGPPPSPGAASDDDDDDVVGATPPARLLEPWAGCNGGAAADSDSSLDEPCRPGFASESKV

`Cc1ccc(O)c([C@H](CCN(C(C)C)C(C)C)c2ccccc2)c1` [TOLTERODINE] gave a logD [1] of 1.8, a microsomal CLint [2] of under 8 µL/min/mg and an Activity [3] of 15%.
`Oc1cccc(F)c1-n1nc(OC2CCNCC2)c2c1CCCC2` gave a Ki [4] of 2.5 nM, a Ki [5] of 2900 nM and a logD [1] of 0.3. It also gave a microsomal CLint [2] of under 8 µL/min/mg.
With `Oc1cccc(F)c1-n1nc(OC2CCNCC2)c2ccccc21` the Ki [4] was 10 nM, the logD [1] was 0.6 and the microsomal CLint [2] was under 8 µL/min/mg.
Molecule `O=c1ccc2c([C@@H](O)CNCCCCCCCCCN3CCC(Oc4nn(-c5c(O)cccc5F)c5c4CCCC5)CC3)ccc(O)c2[nH]1` has a Ki [4] of 2.2 nM, a logD [1] of 2.4 and a microsomal CLint [2] of 25 µL/min/mg. It also gave an EC50 [6] of 14 nM, an EC50 [7] of over 10 µM and a TIME [8] of under 0.267 h. The fold change (FC) [9] was 1.5, the EC50 (Cavia porcellus) was 28 nM and the Time [10] was over 16 h. For the same molecule, the EC50 [11] was 27 nM, the Time [12] was over 16 h and the Papp [13] was under 1 ×10⁻⁶ cm/s.
For `Fc1cccc(F)c1-n1nc(OC2CCNCC2)c2ccccc21`, the Ki [4] was 49 nM, the Ki [5] was 6.8 nM and the logD [1] was 1.4. The microsomal CLint [2] was under 8 µL/min/mg.
